From ChEMBL document CHEMBL1153821, “Identification of novel inhibitors of HCV RNA-dependent RNA polymerase by pharmacophore-based virtual screening and in vitro evaluation” (Bioorg Med Chem, 2009)
Active and inactive are the calls of the source. The rule behind the calls is not given here.

Key:
Hepatitis C virus [1] = experiment: Inhibition of HCV1b NS5B polymerase after 2 hrs by RdRp activity assay; parameters: species or system Hepatitis C virus subtype 1b
Hepatitis C virus [2] = experiment: Inhibition of HCV1b NS5B polymerase at 100 uM after 2 hrs by RdRp activity assay; parameters: species or system Hepatitis C virus subtype 1b
Hepatitis C virus [3] = experiment: Inhibition of HCV1b NS5B polymerase assessed as [alpha-32P]UTP incorporation by non-competitive double reciprocal plot; details: Hepatitis C virus subtype 1b

IC50 (Hepatitis C virus [1]) [µM] | SMILES | inhibition at 100 µM (Hepatitis C virus [2]) [%] | Activity (Hepatitis C virus [3])
20 | Nc1ncnc2c1ncn2/C=C/C(=O)c1ccccc1 | > 80 | Active
20 | Nc1ncnc2c1ncn2/C=C/C(=O)c1ccco1 | > 80 | Active
20 | O=C(Nc1cccn(Cc2ccc(Cl)c(Cl)c2)c1=O)Sc1cccc(C(F)(F)F)c1 | > 80 | Active
